US11155517B2, “4-substituted phenylamine derivatives and their use to protect crops by fighting undesired phytopathogenic micoorganisms” (PI INDUSTRIES LTD., priority 2016, dated 2021)

What was measured:
Format in all cases: cell-based
Pyricularia oryzae = experiment: microbe, parasite or virus in culture; conditions: 168 h, read-out: % control compared to the untreated check (radial growth)
Rhizoctonia solani = Rhizoctonia solani (rice sheath blight/potato black scurf) in vitro test, radial growth on Potato Dextrose Agar; conditions: 168 h, 300 ppm, seven days, 25° C., read-out: % control compared to the untreated check (radial growth)
Botrytis cinerea = Botrytis cinerea (gray mold) in vitro test, radial growth on Potato Dextrose Agar; conditions: 168 h, 300 ppm, seven days, 22° C., read-out: % (control) compared to the untreated check (radial growth)
Alternaria solani = Alternaria solani (early blight of tomato/potato) in vitro test, radial growth on Potato Dextrose Agar; conditions: 168 h, 300 ppm, seven days, 25° C., read-out: % control compared to the untreated check (radial growth)
Colletotrichum capsici = Colletotrichum capsici (anthracnose) in vitro test, radial growth on Potato Dextrose Agar; conditions: Colletotrichum truncatum, 168 h; 300 ppm; seven days, 25° C.; read-out: % control compared to the untreated check (radial growth)

Compound | inhibition of growth at 300 ppm (Pyricularia oryzae) [%] | inhibition of growth at 300 ppm (Rhizoctonia solani) [%] | inhibition of growth at 300 ppm (Botrytis cinerea) [%] | inhibition of growth at 300 ppm (Alternaria solani) [%] | inhibition of growth at 300 ppm (Colletotrichum capsici) [%]
CCN(C)C=Nc1cc(C(F)(F)F)c(Cc2cccc(Cl)c2)cc1C1CC1 [Compound 265, N′-(4-(3-chlorobenzyl)-2-cyclopropyl-5-(trifluoromethyl)phenyl)-N-ethyl-N-methylformimidamide] | > 75 | > 80 | > 80 | > 75 | –
CCN(C)C=Nc1cc(C)c(Cc2cccnc2)cc1Cl [Compound 204, N′-(2-chloro-5-methyl-4-(pyridin-3-ylmethyl)phenyl)-N-ethyl-N-methylformimidamide] | > 75 | > 80 | > 80 | > 75 | > 80
CCN(C)C=Nc1cc(Cl)c(Cc2cccc(C)c2)cc1Cl [Compound 141, N′-(2,5-dichloro-4-(3-methylbenzyl)phenyl)-N-ethyl-N-methylformimidamide] | > 75 | > 80 | > 80 | > 75 | –
CCN(C)C=Nc1cc(Cl)c(Cc2cccc(Cl)c2)cc1Cl [Compound 152, N′-(2,5-dichloro-4-(3-chlorobenzyl)phenyl)-N-ethyl-N-methylformimidamide] | > 75 | > 80 | > 80 | > 75 | –
CCN(C)C=Nc1cc(C)c(Cc2cccc(C(C)C#N)c2)cc1C (stereo not shown) [Compound 107, N′-(4-(3-(1-cyanoethyl)benzyl)-2,5-dimethylphenyl)-N-ethyl-N-methylformimidamide] | > 75 | > 80 | > 80 | > 75 | > 80
CCN(C)C=Nc1cc(C)c(Cc2cccc(C)c2)cc1S(C)(=O)=O [Compound 273, N-ethyl-N-methyl-N′-(5-methyl-4-(3-methylbenzyl)-2-(methylsulfonyl)phenyl)formimidamide] | > 75 | > 80 | > 80 | > 75 | –
CCN(C)C=Nc1cc(Cl)c(Cc2ccccc2C)cc1Cl [Compound 151, N′-(2,5-dichloro-4-(2-methylbenzyl)phenyl)-N-ethyl-N-methylformimidamide] | > 75 | > 80 | > 80 | > 75 | –
CCN(C)C=Nc1cc(C)c(Cc2cccc(C(F)(F)F)c2)cc1F [Compound 205, N-ethyl-N′-(2-fluoro-5-methyl-4-(3-(trifluoromethyl)benzyl)phenyl)-N-methylformimidamide] | > 75 | > 80 | – | > 75 | > 80
CCN(C)C=Nc1c(C)cc(Cc2ccc(C3CC3)cc2)c(C)c1C1CC1 [Compound 267, N′-(2-cyclopropyl-4-(4-cyclopropylbenzyl)-3,6-dimethylphenyl)-N-ethyl-N-methylformimidamide] | > 75 | > 80 | > 80 | > 75 | –
Cc1cc(N=CN2CCCCC2)c(Cl)cc1Cc1cccc(F)c1 [Compound 39, N-(2-chloro-4-(3-fluorobenzyl)-5-methylphenyl)-1-(piperidin-1-yl)methanimine] | > 75 | > 80 | – | > 75 | > 80
CCN(C)C=Nc1cc(C)c(C(C#N)c2ccc(Cl)cc2)cc1Cl (stereo not shown) [Compound 193, N′-(2-chloro-4-((4-chlorophenyl)(cyano)methyl)-5-methylphenyl)-N-ethyl-N-methylformimidamide] | > 75 | > 80 | > 80 | – | –
CCN(C)C=Nc1cc(C)c(Cc2cc(Cl)cc(Cl)c2)cc1Cl [Compound 21, N′-(2-chloro-4-(3,5-dichlorobenzyl)-5-methylphenyl)-N-ethyl-N-methylformimidamide] | > 75 | > 80 | > 80 | > 75 | > 80
CCN(C)C=Nc1cc(C)c(C(C#N)c2ccc(C)cc2)cc1Cl (stereo not shown) [Compound 191, N′-(2-chloro-4-(cyano(p-tolyl)methyl)-5-methylphenyl)-N-ethyl-N-methylformimidamide] | – | > 80 | > 80 | – | –
CCN(C)C=Nc1cc(C)c(Cc2cccc(OC(F)(F)F)c2)cc1Cl [Compound 124, N′-(2-chloro-5-methyl-4-(3-(trifluoromethoxy)benzyl)phenyl)-N-ethyl-N-methylformimidamide] | > 75 | > 80 | > 80 | > 75 | > 80
Cc1cc(N=CN(CC2CC2)C(C)C)c(C)cc1Cc1ccccc1Cl [Compound 89, N′-(4-(2-chlorobenzyl)-2,5-dimethylphenyl)-N-(cyclopropylmethyl)-N-isopropylformimidamide] | > 75 | > 80 | > 80 | > 75 | –
CCN(C)C=Nc1cc(C)c(Cc2c(F)cccc2F)cc1Cl [Compound 203, N′-(2-chloro-4-(2,6-difluorobenzyl)-5-methylphenyl)-N-ethyl-N-methylformimidamide] | > 75 | – | – | > 75 | > 80
CCN(C)C=Nc1cc(C(F)(F)F)c(Cc2cccc(F)c2)cc1F [Compound 230, N-ethyl-N′-(2-fluoro-4-(3-fluorobenzyl)-5-(trifluoromethyl)phenyl)-N-methylformimidamide] | > 75 | > 80 | > 80 | > 75 | –
CCN(C)C=Nc1cc(Cl)c(Cc2cccc(OC(F)(F)F)c2)cc1Cl [Compound 182, N′-(2,5-dichloro-4-(3-(trifluoromethoxy)benzyl)phenyl)-N-ethyl-N-methylformimidamide] | > 75 | > 80 | > 80 | > 75 | –
CCN(C)C=Nc1cc(C)c(C(C#N)c2ccccc2)cc1C (stereo not shown) [Compound 127, N′-(4-(cyano(phenyl)methyl)-2,5-dimethylphenyl)-N-ethyl-N-methylformimidamide] | > 75 | > 80 | – | > 75 | > 80
CCN(C)C=Nc1cc(C)c(Cc2ccccc2C)cc1Cl [Compound 122, N′-(2-chloro-5-methyl-4-(2-methylbenzyl)phenyl)-N-ethyl-N-methylformimidamide] | > 75 | > 80 | – | > 75 | > 80
CCN(C)C=Nc1cc(C#N)c(Cc2ccccc2F)cc1C [Compound 247, N′-(5-cyano-4-(2-fluorobenzyl)-2-methylphenyl)-N-ethyl-N-methylformimidamide] | > 75 | > 80 | > 80 | > 75 | –
CCN(C)C=Nc1cc(C#N)c(Cc2cccc(C)c2)cc1C [Compound 251, N′-(5-cyano-2-methyl-4-(3-methylbenzyl)phenyl)-N-ethyl-N-methylformimidamide] | > 75 | > 80 | > 80 | > 75 | –
CCN(C)C=Nc1cc(C)c(Cc2ccccc2C#N)cc1Cl [Compound 100, N′-(2-chloro-4-(2-cyanobenzyl)-5-methylphenyl)-N-ethyl-N-methylformimidamide] | > 75 | > 80 | – | > 75 | > 80
CCN(C)C=Nc1cc(C(F)(F)F)c(Cc2cccc(F)c2)cc1C1CC1 [Compound 266, N′-(2-cyclopropyl-4-(3-fluorobenzyl)-5-(trifluoromethyl)phenyl)-N-ethyl-N-methylformimidamide] | > 75 | – | > 80 | > 75 | –
CCN(C)C=Nc1cc(C(F)(F)F)c(Cc2cccc(C(F)(F)F)c2)cc1F [Compound 232, N-ethyl-N′-(2-fluoro-5-(trifluoromethyl)-4-(3-(trifluoromethyl)benzyl)phenyl)-N-methylformimidamide] | > 75 | > 80 | > 80 | > 75 | –
CCN(C)C=Nc1c(C)cc(Cc2ccccc2C)c(C)c1Br [Compound 219, N′-(2-bromo-3,6-dimethyl-4-(2-methylbenzyl)phenyl)-N-ethyl-N-methylformimidamide] | > 75 | – | > 80 | > 75 | –
Cc1cc(N=CN(CC2CC2)C(C)C)c(C)cc1Cc1ccccc1F [Compound 88, N-(cyclopropylmethyl)-N′-(4-(2-fluorobenzyl)-2,5-dimethylphenyl)-N-isopropylformimidamide] | > 75 | > 80 | > 80 | > 75 | –
